Calls of active or inactive are those of the source. The calls are words filed in the database; no cut-off is given here.
How the values were obtained:
[1] = system: A549; assay: Inhibition of epithelial-mesenchymal transition in TGF-beta1-induced human A549 cells assessed as effect on alpha-SMA by measuring fluorescence intensity at 200 nM incubated for 24 hrs by immunofluorescence assays; type: functional, cell-based
[2] = system: Mus musculus; assay: Antifibrotic activity against bleomycin-induced C57BL/6 mouse lung fibrosis model assessed as prevention of belomycin-induced collagen-1 expression in lung at 60 mg/kg, ip by immunohistochemical staining based analysis; type: functional, organism-based
[3] = molecular target: Signal transducer and activator of transcription 3 (Mus musculus) (UniProt P42227); assay: Binding affinity to STAT3 in mouse NIH3T3 cells assessed as reduction in protein degradation; type: cell-based
Sequence of Signal transducer and activator of transcription 3 (Mus musculus) (P42227 whole entry): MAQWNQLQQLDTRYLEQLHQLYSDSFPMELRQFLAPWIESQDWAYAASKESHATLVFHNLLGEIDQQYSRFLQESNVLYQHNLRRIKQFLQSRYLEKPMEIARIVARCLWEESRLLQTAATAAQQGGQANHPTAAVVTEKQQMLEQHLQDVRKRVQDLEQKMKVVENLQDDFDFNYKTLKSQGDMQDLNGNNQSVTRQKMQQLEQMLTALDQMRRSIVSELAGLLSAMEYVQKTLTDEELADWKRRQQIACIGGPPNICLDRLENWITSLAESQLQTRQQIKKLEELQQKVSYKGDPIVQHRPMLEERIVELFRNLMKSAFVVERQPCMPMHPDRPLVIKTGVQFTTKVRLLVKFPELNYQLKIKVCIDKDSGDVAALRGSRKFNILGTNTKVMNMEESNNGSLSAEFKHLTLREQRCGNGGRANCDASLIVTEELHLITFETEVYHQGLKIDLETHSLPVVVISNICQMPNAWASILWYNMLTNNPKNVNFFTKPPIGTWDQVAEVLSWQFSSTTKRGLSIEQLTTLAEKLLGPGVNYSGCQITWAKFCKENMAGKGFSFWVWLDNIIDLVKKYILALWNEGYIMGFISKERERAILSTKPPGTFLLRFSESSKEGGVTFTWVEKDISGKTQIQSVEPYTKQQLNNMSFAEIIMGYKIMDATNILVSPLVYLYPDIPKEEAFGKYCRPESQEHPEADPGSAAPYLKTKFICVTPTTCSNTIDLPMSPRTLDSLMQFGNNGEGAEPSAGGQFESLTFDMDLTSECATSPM

[4] = Toxicity in C57BL/6 mouse assessed as kidney lesion at 60 mg/kg, ip by H and E staining based analysis; type: organism-based; details: in vivo
[5] = species on record: Mus musculus; assay: Antifibrotic activity against bleomycin-induced C57BL/6 mouse lung fibrosis model assessed as reduction in F4/80+CD11b+ macrophage in lung at low dose incubated for 30 mins by flow cytometry analysis ( Rvb = 17.96%); type: functional; set-up: scale not given: the % may be the effect or the level left; details: 0.5 h
[6] = molecular target: Signal transducer and activator of transcription 3 (Homo sapiens) (UniProt P40763); assay: Binding affinity to STAT3 in human A549 cells assessed as reduction in protein degradation; type: cell-based
Sequence of Signal transducer and activator of transcription 3 (Homo sapiens) (P40763 whole entry): as the sequence (P42227 whole entry) above, with D760E counted along it

[7] = system: Mus musculus; assay: Antifibrotic activity against bleomycin-induced C57BL/6 mouse lung fibrosis model assessed as reduction in STAT3 phosphorylation at Ty705 residue in lung at 60 mg/kg, ip by immunohistochemical staining based analysis; type: functional, organism-based
[8] = system: NIH3T3; assay: Inhibition of colony formation in mouse NIH3T3 cells assessed as inhibition of cell proliferation incubated for 2 weeks by crystal violet staining based microscopic analysis; type: functional; details: dose <= 100.0 nM
[9] = Toxicity in C57BL/6 mouse assessed as heart lesion at 60 mg/kg, ip by H and E staining based analysis; type: organism-based; details: in vivo
[10] = system: Mus musculus; assay: Antifibrotic activity against bleomycin-induced pulmonary fibrosis C57BL/6 mouse model assessed as reduction in alveolar septa thickness at 60 mg/kg, ip administered for 20 days and measured on 21 day; type: functional, organism-based
[11] = species on record: Mus musculus; assay: Antifibrotic activity against bleomycin-induced C57BL/6 mouse lung fibrosis model assessed as reduction in CD11c+MHC II+ in dendritic cells in lung at low dose incubated for 30 mins by flow cytometry analysis ( Rvb = 23.67 %); type: functional; set-up: scale not given: the % may be the effect or the level left; details: 0.5 h
[12] = system: NIH3T3; assay: Antiproliferative activity against TGFbeta-induced mouse NIH3T3 cells assessed as cell viability at 6.25 to 100 nM incubated for 24 to 72 hrs by CCK-8 assay; type: functional, cell-based; details: dose 6.25-100 nM, time 24-72 hrs
[13] = system: NIH3T3; assay: Antifibrotic activity in TGF-beta1-induced mouse NIH3T3 cells assessed as inhibition of collagen-1 expression at 50 nM incubated for 24 hrs by Western blot analysis; type: functional, cell-based
[14] = species on record: Mus musculus; assay: Antifibrotic activity against bleomycin-induced C57BL/6 mouse lung fibrosis model assessed as reduction in CD11c+MHC II+ in dendritic cells in lung at high dose incubated for 30 mins by flow cytometry analysis ( Rvb = 23.67 %); type: functional; set-up: scale not given: the % may be the effect or the level left; details: 0.5 h
[15] = system: Mus musculus; assay: Antifibrotic activity against bleomycin-induced C57BL/6 mouse lung fibrosis model assessed as inhibition of hydroxyproline content in lung at 60 mg/kg, ip; type: functional, organism-based
[16] = species on record: Mus musculus; assay: Antifibrotic activity against bleomycin-induced C57BL/6 mouse lung fibrosis model assessed as reduction in F4/80+CD11b+ macrophage in lung at high dose incubated for 30 mins by flow cytometry analysis ( Rvb = 17.96%); type: functional; set-up: scale not given: the % may be the effect or the level left; details: 0.5 h
[17] = species on record: Mus musculus; assay: Antifibrotic activity against bleomycin-induced C57BL/6 mouse lung fibrosis model assessed as reduction in F4/80+CD11b+ macrophage incubated for 30 mins by flow cytometry analysis; type: functional, organism-based
[18] = system: A549; assay: Induction of morphological changes in TGF-beta1 induced human A549 cells assessed as appearance of spindle shape cells at 200 nM measured for 24 hrs by phase contrast microscopy analysis; type: functional, cell-based
[19] = system: A549; assay: Inhibition of epithelial-mesenchymal transition in human A549 cells assessed as effect on alpha-SMA by measuring fluorescence intensity measured for 24 hrs by immunofluorescence assays; type: functional, cell-based
[20] = system: NIH3T3; assay: Antiproliferative activity against mouse NIH3T3 cells assessed as cell growth inhibition incubated for 24 to 72 hrs by CCK-8 assay; type: functional, cell-based
[21] = species on record: Mus musculus; assay: Antifibrotic activity against bleomycin-induced C57BL/6 mouse lung fibrosis model assessed as reduction in CD4-CD69+ T cell in lung at low dose incubated for 30 mins by flow cytometry analysis ( Rvb = 6.54%); type: functional; set-up: scale not given: the % may be the effect or the level left; details: 0.5 h
[22] = system: A549; assay: Inhibition of cell migration in TGF-beta1 induced human A549 cells measured for 24 hrs by contrast-phase microscopic analysis; type: functional, cell-based
[23] = system: NIH3T3; assay: Antifibrotic activity in TGF-beta1-induced mouse NIH3T3 cells assessed as inhibition of alpha-SMA expression at 50 nM incubated for 24 hrs by Western blot analysis; type: functional, cell-based
[24] = system: A549; assay: Antiproliferative activity against TGFbeta-induced human A549 cells assessed as reduction in cell viability at 200 nM incubated for 72 hrs by CCK-8 assay; type: functional
[25] = system: A549; assay: Inhibition of epithelial-mesenchymal transition in human A549 cells assessed as effect on E-cadherin by measuring fluorescence intensity measured for 24 hrs by immunofluorescence assays; type: functional, cell-based
[26] = system: NIH3T3; assay: Antiproliferative activity against mouse NIH3T3 cells assessed as cell growth inhibition incubated for 72 hrs by CCK-8 assay; type: functional, cell-based; details: dose 6.25-100 nM
[27] = system: Mus musculus; assay: Antifibrotic activity against bleomycin-induced pulmonary fibrosis C57BL/6 mouse model assessed as increase in inter-alveolar space at 60 mg/kg, ip administered for 20 days and measured on 21 day; type: functional, organism-based
[28] = species on record: Mus musculus; assay: Antifibrotic activity against bleomycin-induced C57BL/6 mouse lung fibrosis model assessed as reduction in CD4-CD69+ T cell in lung at high dose incubated for 30 mins by flow cytometry analysis ( Rvb = 6.54%); type: functional; set-up: scale not given: the % may be the effect or the level left; details: 0.5 h
[29] = species on record: Mus musculus; assay: Antifibrotic activity against bleomycin-induced C57BL/6 mouse lung fibrosis model assessed as reduction in CD11c+MHC II+ in dendritic cells incubated for 30 mins by flow cytometry analysis; type: functional, organism-based
[30] = system: NIH3T3; assay: Antifibrotic activity in TGF-beta1-induced mouse NIH3T3 cells assessed as inhibition of STAT3 phosphorylation at 50 nM incubated for 24 hrs by Western blot analysis; type: functional, cell-based
[31] = species on record: Mus musculus; assay: Antifibrotic activity against bleomycin-induced C57BL/6 mouse lung fibrosis model assessed as reduction in CD4-CD69+ T cell incubated for 30 mins by flow cytometry analysis; type: functional, organism-based
[32] = system: A549; assay: Inhibition of epithelial-mesenchymal transition in TGF-beta1-induced human A549 cells assessed as effect on E-cadherin by measuring fluorescence intensity at 200 nM incubated for 24 hrs by immunofluorescence assays; type: functional, cell-based
[33] = Toxicity in C57BL/6 mouse assessed as liver lesion at 60 mg/kg, ip by H and E staining based analysis; type: organism-based; details: in vivo
[34] = system: Mus musculus; assay: Antifibrotic activity against bleomycin-induced C57BL/6 mouse lung fibrosis model assessed as prevention of belomycin-induced alpha-SMA expression in lung at 60 mg/kg, ip by immunohistochemical staining based analysis; type: functional, organism-based
[35] = system: A549; assay: Antiproliferative activity against TGFbeta-induced human A549 cells assessed as reduction in cell viability incubated for 72 hrs by CCK-8 assay; type: functional, cell-based; details: dose 25-400 nM
[36] = Toxicity in C57BL/6 mouse assessed as spleen lesion at 60 mg/kg, ip by H and E staining based analysis; type: organism-based; details: in vivo
[37] = system: Mus musculus; assay: Antifibrotic activity against bleomycin-induced C57BL/6 mouse lung fibrosis model assessed as inhibition of hydroxyproline content in lung at 60 mg/kg, ip administered for 7 to 14 days; type: functional, organism-based; details: time 7-14 day

Question: What does the source list for `O=C(C1=Cc2ccccc2S1(=O)=O)N1CCN(Cc2cc(F)c(F)cc2F)CC1`?
Answer: inhibition [1]: Active; Activity [2]: Active; Activity [3]: Active; Activity [4]: Non-Toxic; Activity [5]: 6.93%; Activity [6]: Active; Activity [7]: Active; inhibition [8]: Dose-Dependent Effect; Activity [9]: Non-Toxic; Activity [10]: Active; Activity [11]: 12.37%; Activity [12]: Active; Activity [13]: Active; Activity [14]: 9.28%; Activity [15]: Active; Activity [16]: 10.45%; Activity [17]: Active; Activity [18]: Active; inhibition [19]: Active; IC50 [20]: 0.47 µM; Activity [21]: 0.65%; inhibition [22]: Active; Activity [23]: Active; Activity [24]: 50%; inhibition [25]: Active; Activity [26]: Dose-Dependent Effect; Activity [27]: Active; Activity [28]: 2.84%; Activity [29]: Active; Activity [30]: Active; Activity [31]: Active; inhibition [32]: Active; Activity [33]: Non-Toxic; Activity [34]: Active; Activity [35]: Dose-Dependent Effect; Activity [36]: Non-Toxic; Activity [37]: Active
